Reference: patent US10444224B2, “Method for RNA detection and quantification” (Cornell University, priority 2011, dated 2019)

B1: 24-2-min: final truncated (minimized) 24-2 sequence (nucleic acid)
chain: GACGCGACCGAAAUGGUGAAGGACGGGUCCAGUGCUUCGGCACUGUUGAGUAGAGUGUGAGCUCCGUAACUGGUCGCGUC
modifications: listed as RNA, chemistry not given here

Tests used:
HEK293 cells [1] = assay: Nonspecific fluorescence activation by cellular components; format: cell-based; settings: 10 μM, 30 min
Method: HEK293 cells were grown on PLL-coated glass-bottom dishes (MatTek) in DMEM plus 10% FBS to ˜80% confluency. Media was removed, cells were washed twice with microscopy media (20 mM HEPES pH 7.4, 119 mM NaCl, 5 mM KCl, 2 mM CaCl2, 2 mM MgCl2, and 30 mM glucose) and then incubated for 30 min with microscopy media plus vehicle (0.2% DMSO) or 10 μM N,N-Dimethyl-4′-nitro-4-stilbenamine, thiazole orange, malachite green, or DFHBI. Live fluorescence images were then taken with a CoolSnap HQ2 CCD camera through a 40× oil objective mounted on a Nikon TE2000 microscope and analyzed with the NIS-Elements software.

HEK293 cells [2] = assay: Cytotoxicity assay after illumination (MTT); format: cell-based; settings: 10 μM fluorophore, 10 min illumination
Method: HEK293 cells were grown on PLL-coated glass-bottom dishes as indicated above. At ˜80% confluency, the media was removed and cells were incubated for 30 min with fresh media alone, media plus vehicle (0.2% DMSO) or media plus 10 μM DMHBI, DFHBI or MG. Cells were then illuminated for 10 min at 37° C. with a Nikon Intensilight C-HGFIE 130 W mercury lamp with FITC (DMHBI and DFHBI) or Cy5 (malachite green) filter sets (Chroma Technology) on an inverted epifluorescence microscope. Control cells were illuminated for 10 min under identical conditions but in the absence of any fluorophore. Cells were then washed several times with media to remove fluorophores and assayed for mitochondrial activity with MTT (3-[4,5-dimethylthiazol-2-yl]-2,5-diphenyltetrazolium bromide) based cell proliferation kit (Roche) and prepared according to manufacturers instructions. MTT absorbance readings were performed at 550 nm with 650 nm absorbance used for background subtraction. Values are reported as percent change in viability compared to control samples (illumination without fluorophore or without vehicle) and each condition was repeated in triplicate and averaged.

[3] = Truncation and mutagenesis of 24-2, DFHBI fluorescence; format: biochemical; settings: with DFHBI
Method: Secondary structure prediction was performed using Mfold online software (Zuker, “Mfold Web Server for Nucleic Acid Folding and Hybridization Prediction,” Nucl. Acids Res. 31(13): 3406-3415 (2003), which is hereby incorporated by reference in its entirety). Mutated and truncated RNAs were created by ordering single stranded DNA templates (Integrated DNA Technologies) with the desired mutations or truncations and PCR amplifying these sequences to create double stranded DNA templates using primers which included a 5′ T7 promoter sequence. PCR products were then purified with PCR purification columns (Qiagen) and used as templates for in vitro T7 transcription reactions (Epicentre).

Molecule | nonspecific fluorescence activation upon incubation with cells (HEK293 cells [1]) | cytotoxicity / phototoxicity upon illumination (HEK293 cells [2]) | fluorescence relative to full-length 24-2 [3] [%]
CC1=NC(=Cc2cc(F)c(O)c(F)c2)C(=O)N1C [DFHBI, 4-(3,5-difluoro-4-hydroxybenzylidene)-1,2-dimethyl-imidazol-5-one] | does not exhibit nonspecific fluorescence activation | negligible phototoxicity | –
B1 | – | – | ~95
